Several values for one entry are separate records, joined by “and”; a condition that tells them apart may be missing. Identical values can stand only once.
Legend:
[1] = system: human epithelial squamous cell carcinoma cells (A431); test: Cell viability (NRU assay) after irradiation with varying incubation periods (2, 3 or 4 hours); assay type: cell-based; conditions: A431 cells, then red light 37 J/cm^2, NRU assay, individual replicates
Method: Neutral red is an inert dye actively taken up and stored by viable (living) cells, an action which is unable to be performed by non-viable cells, therefore the level of neutral red taken up is directly proportional to the number of viable cells present following a given exposure. Following uptake of the dye, cells are lysed and the level of neutral red quantified using a plate reader.
After the relevant incubation period, the cells were irradiated with red light (37 J/cm^2; 635±2 nm; Aktilite, Galderma, UK).

[2] = system: human epithelial squamous cell carcinoma cells (A431); test: PpIX fluorescence accumulation; conditions: A431 cells;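 further: PpIX fluorescence accumulating inside A431 cells, read under dim light to limit photobleaching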
Method: (§1) Briefly, cells were seeded at 2×10^4 cells per well in a 96 well plate and left to adhere overnight. Test solutions were prepared on the day of the assay and applied to the cells. The level of PpIX produced was monitored using a multi-well fluorescent plate reader with a 400 (±30) nm excitation filter and a 645 (±40) nm emission filter, with the level of fluorescence produced being directly proportional to the level of PpIX present. Readings were taken hourly for 6 hours and were conducted under low light conditions to reduce photobleaching of PpIX.
These were tested alongside equimolar concentrations of ALA, ALA and CP94 (3), MAL, and MAL and CP94 (3), with all test compounds being investigated in human dermal fibroblasts (84BR; FIGS. 2A and 2B), human epithelial squamous cell carcinoma cells (A431; FIGS. 3A and 3B) and human glioblastoma cells (U87MG; FIGS. 4A and 4B).

[3] = system: human epithelial squamous cell carcinoma cells (A431); test: PpIX fluorescence after varying incubation periods (2, 3 or 4 hours); conditions: for PpIX fluorescence: A431 cells, individual replicates
Method: as §1

[4] = system: human dermal fibroblasts (84BR); test: PDT efficacy: cell viability (NRU assay) following irradiation; conditions: 84BR; added to ALA or MAL
Method: To assess the effect of AP2-18 (8) on PpIX-induced PDT efficacy, the same three cell types were exposed to equimolar concentrations of ALA, ALA and CP94 (3), MAL, MAL and CP94 (3), and AP2-18 (8) (as described previously) and incubated in the dark for 4 hours. The level of PpIX accumulation was then quantified as before, prior to irradiation with red light (37 J/cm^2; 635±2 nm; Aktilite, Galderma, UK).

For `NCC(=O)CCC(=O)O` [ALA, aminolevulinic acid], the cell viability ([1]; 250 μM (each drug), incubation time 2 hours, 250 µM) was 104.2825 and 103.9063 and 123.5695 and 112.4377 and 117.6227 and 97.71 and 44.14 and 34.7079 and 50.73, the cell viability ([1]; 250 μM (each drug), incubation time 3 hours, 250 µM) was 124.0654 and 135.6267 and 95.31 and 55.77 and 55.32 and 62.02 and 56.05 and 85.67 and 55.08 and 120.1384 and 57.18 and 77.31 and the cell viability ([1]; 250 μM (each drug), incubation time 4 hours, 250 µM) was 82.01 and 64.97 and 20.14 and 125.0307 and 150.1618 and 127.1037 and 6.313 and 9.566 and 15.91. The cell viability ([1]; 500 μM (each drug), incubation time 2 hours, 500 µM) was 99.84 and 113.3557 and 112.7404 and 95.2285 and 69.94 and 82.25 and 65.56 and 62.54 and 64.53, the cell viability ([1]; 500 μM (each drug), incubation time 3 hours, 500 µM) was 118.05 and 77.38 and 69.99 and 77.18 and 78.53 and 70.11 and 42.15 and 44.3852 and 60.85 and 274.4678 and 51.1 and 55.1 and the cell viability ([1]; 500 μM (each drug), incubation time 4 hours, 500 µM) was 67.69 and 28.73 and 8.056 and 111.2275 and 105.7573 and 29.3785 and 108.0828 and 59.78 and 39.7. For the same compound, the cell viability ([1]; 1000 μM (each drug), incubation time 2 hours, 1000 µM) was 87.3 and 106.5283 and 118.4391 and 110.6882 and 113.0739 and 122.8714 and 119.6405 and 111.0759 and 80.15, the cell viability ([1]; 1000 μM (each drug), incubation time 3 hours, 1000 µM) was 146.327 and 79.29 and 120.4428 and 43.82 and 38.85 and 34.8 and 39.79 and 27.42 and 54.75 and 57.2548 and 73.63 and 60.04 and the cell viability ([1]; 1000 μM (each drug), incubation time 4 hours, 1000 µM) was 59.3 and 27.29 and 6.353 and 109.5082 and 86.85 and 18.6677 and 42.58 and 43.47 and 28.34. The PpIX accumulation ([2]; 500 μM (each component), exposure time 4 hours) was 22.67 and 25.67 and 27.67 and 38 and 36 and 43, the PpIX accumulation ([2]; 500 μM (each component), exposure time 5 hours) was 39.67 and 42.67 and 45.67 and 49.33 and 51.33 and the PpIX accumulation ([2]; 500 μM (each component), exposure time 6 hours) was 52.33 and 55.33 and 61.33 and 61.67 and 62.67. For the same compound, the PpIX accumulation ([2]; 1000 μM (each component), exposure time 4 hours) was 32.33 and 45.33 and 43.33 and 38.33, the PpIX accumulation ([2]; 1000 μM (each component), exposure time 5 hours) was 50.67 and 63.67 and 60.67 and 51.67 and 54.67 and 57.67 and the PpIX accumulation ([2]; 1000 μM (each component), exposure time 6 hours) was 63 and 79 and 72 and 65 and 68 and 75. For the same compound, the PpIX fluorescence ([3]; 500 μM (each drug), incubation time 2 hours) was −3.67 and −1.67 and −2.67 and 15.33 and 12.33 and 19.33 and 3.667 and 0.6667 and 5, the PpIX fluorescence ([3]; 500 μM (each drug), incubation time 3 hours) was 7 and 9 and 6 and 27 and 24 and 32 and 2.667 (2×) and 4.667 and the PpIX fluorescence ([3]; 500 μM (each drug), incubation time 4 hours) was 22.67 and 25.67 and 27.67 and 38 and 36 and 43 and 5 and 4 and 6.667. The PpIX fluorescence ([3]; 1000 μM (each drug), incubation time 2 hours) was 1.33 and 9.33 and 14.33 and 12.33 and 15.33 and 16.33 and 8.333 and 6.333 and 9.667, the PpIX fluorescence ([3]; 1000 μM (each drug), incubation time 3 hours) was 14.33 and 25.33 and 26.33 and 27.33 and 28.33 and 32.33 and 12.33 and 10.33 and 9.333 and the PpIX fluorescence ([3]; 1000 μM (each drug), incubation time 4 hours) was 32.33 and 45.33 (2×) and 43.33 and 38.33 (2×) and 12.33 (2×) and 12.
With `CCc1c(O)c(O)cc[n+]1CC.[Cl-]` [CP94] the “effect of iron chelator on PDT effect of ALA and MAL” value [4] was “improved the PDT effect of both ALA and MAL in a concentration dependent manner” and the “effect of iron chelator on PpIX levels” value ([3]; A431, added to the ALA or MAL incubation period) was “improved PpIX levels”.

Source: patent US9346758B2, “Pyridinone compounds for use in photodynamic therapy” (UNIVERSITY OF EXETER, priority 2012, dated 2016)
